Measurements reported in patent US20200384188A1, “SYSTEMS, DEVICES, FORMULATIONS AND METHODS FOR CONTROLLED DRUG DELIVERY” (priority 2017, published 2020).
“And” between values parts separate entries of the source, which are not always exact repeats. Equal values may be shown once.

Experiments:
[1] = tested on: rats (Group 1 Sprague-Dawley, Group 4 Han Wister); test: Randall-Selitto test (Brewers Yeast-inflamed hind paw, analgesy meter); type: in vivo, rat; details: for Force (g) applied to the inflamed (right) paw, individual animals / Force (g) applied to the inflamed (right) paw, mean / % change from baseline, force on inflamed (right) paw / % change from baseline, force on untreated (left) paw / Force (g) applied, Left paw, individual animals / Force (g) applied, Right Paw (inflamed), individual animals / Force (g) applied to the untreated (left) paw, mean: 50 mg/kg sc; for Force (g) applied to the inflamed (right) paw, individual animals: animals R0001-R0006; for Force (g) applied to the inflamed (right) paw, individual animals / Force (g) applied, Left paw, individual animals / Force (g) applied, Right Paw (inflamed), individual animals: 50 mg/kg
Excerpt: The Randall Selitto test is a tool to assess the response thresholds to mechanical pressure stimulation following induction of a hyperalgesic state by injection of an inflammatory agent and is considered a measure of mechanical hyperalgesia (Randall and Selitto, 1957). This involves application of an increasing force to the surface of the paw until withdrawal or vocalization occurs. The test can produce results similar to decreases on pressure pain thresholds observed in clinical conditions, such as fibromyalgia, myofascial pain, or osteoarthritis (Arendt-Nielsen et al., 2010; Bennett, 2007; Finan et al., 2013; Hsu et al., 2010). Centrally and peripherally acting effects can be detected using this model, for example, opioids increase the mechanical threshold to the normal and inflamed paw, whereas nonsteroidal anti-inflammatory drugs are only effective in the inflamed paw.
Eighteen male Sprague-Dawley rats were obtained from Charles River, Margate, United Kingdom, and were used for dosing. Animals weighed between 319 and 419 g on the day of dosing. Eight male Han Wister rats were obtained from Charles River, Margate, United Kingdom and used for Group 4. Animals weighed between 381 and 504 g on the day of dosing. The animals were assessed according to Table 1.
Animals were dosed subcutaneously via a motorized insulin pump.
The threshold of a pain response to increasing pressure was measured using an analgesy meter (Ugo Basile, Italy). The animal was gently held by a competent operator, and the hind paw of the animal was positioned over a convex surface (a cone-shaped pusher). A gradually increasing pressure (g) was applied to the upper surface of the paw. The force was continuously monitored by a pointer moving along a linear scale and was stopped by depression of a foot pedal when the animal struggled. A cut-off value of 300 g was adopted (based on available literature and experience).
Pre-dose Phase: The pressure pain threshold of each animal was tested on two occasions (once in the morning and once in the afternoon). This allowed animals to acclimate to the procedure.
(§1) Day of Dosing: On the day of dosing, each animal was administered a 0.1 mL 20% suspension of Brewers Yeast subcutaneously into the sub-plantar of the right hind paw at approximately 180 minutes prior to ketamine administration. Immediately prior to ketamine administration (Group 4), 15 and 30 minutes and 1, 2, and 4 hours post administration of ketamine, each animal was assessed for a response to increasing pressure on both hind paws (Group 1 used right hind paw, Group 4 used both hind paws), using the analgesy meter. Signs of anesthesia were recorded.

rats [2] = test: Signs of anesthesia recorded during the rat pain tests; type: in vivo; details: 50 mg/kg sc via insulin pump
Procedure: Signs of anesthesia were recorded.
as §1

rats [3] = details: 50 mg/kg; cited from earlier work
Gottingen Minipigs = test: Minipig animal observations and necropsy; type: in vivo, Gottingen Minipig; details: Animals S0001 and S0004, Group 1 males
Excerpt: All animals appeared healthy prior to dosing and throughout the duration of the study, with the following observations noted.

male Sprague-Dawley rats = details: rat, in vivo
[4] = Minipig pharmacokinetics study (BB-1802), single subcutaneous infusion via insulin pump, plasma LC-MS/MS; details: for half-life / Tmax: Gottingen, minipig, plasma, sc; for Tmax: mean Tmax
Procedure: The purpose of this study was to determine the pharmacokinetics of ketamine after a single subcutaneous infusion dose to minipigs.
Dose Administration: In each phase, animals received a single subcutaneous infusion (up to 18 hours) via insulin pump (Medtronic MiniMed Paradigm® Insulin Pump). The infusion pump was programmed in accordance with a Study Specific Procedure, and the infusion was continuously monitored for the duration of the dose. […] The pump was inspected, re-secured to the animal, and the dose continued.
For each phase, blood (approximately 2 mL) was collected via jugular vein catheter into tubes containing K3EDTA from each animal predose and at approximately 0.083, 0.25, 0.5, 1, 2, 4, 8, 9 (Phases 1 through 3 only), 10 (Phases lthrough 3 only), 12, 15 (Phases 4 and 5 only), 18 (Phases 4 and 5 only), 20 (Phases 4 and 5 only), 22 (Phases 4 and 5 only), and 24 hours postdose, with the following exceptions in Phase 3 for Animal 50004 (Group 1 male). […] Times were based on the start of the infusion.
Plasma samples were analyzed for concentrations of ketamine using an established liquid chromatography/mass spectrometry (LC-MS/MS) method.
Noncompartmental analysis (1) was applied to the individual plasma ketamine concentration data for males and females. The following parameters were estimated whenever possible:
Nominal doses and sampling times were used. […] Embedded zeros were excluded from pharmacokinetic analysis.

CNC1(c2ccccc2Cl)CCCCC1=O (centres unmarked) [ketamine]
Force (g) applied to the inflamed (right) paw, individual animals ([1]; Group 1, 0.25 h): 90 g (2×) and 20 g and 40 g (2×) and 120 g
Force (g) applied to the inflamed (right) paw, mean ([1]; Group 1, 0.25 h, n=6): 153.3 g
Force (g) applied to the inflamed (right) paw, individual animals ([1]; Group 1, 0.5 h): 100 g and 130 g and 80 g and 170 g and 120 g and 40 g
Force (g) applied to the inflamed (right) paw, mean ([1]; Group 1, 0.5 h, n=6): 66.7 g
Force (g) applied to the inflamed (right) paw, individual animals ([1]; Group 1, 1 h): 130 g and 120 g (2×) and 80 g (2×) and 60 g
Force (g) applied to the inflamed (right) paw, mean ([1]; Group 1, 1 h, n=6): 106.7 g
Force (g) applied to the inflamed (right) paw, individual animals ([1]; Group 1, 2 h): 60 g and 110 g and 50 g and 200 g and 120 g and 140 g
Force (g) applied to the inflamed (right) paw, mean ([1]; Group 1, 2 h, n=6): 98.3 g
Force (g) applied to the inflamed (right) paw, individual animals ([1]; Group 1, 4 h): 120 g (2×) and 110 g and 140 g and 90 g (2×)
Force (g) applied to the inflamed (right) paw, mean ([1]; Group 1, 4 h, n=6): 113.3 g
pressure required to initiate a response, in words ([1]; Group 1, 0.5 to 2 hours post-dose versus the 15 minute time point, majority of animals): increase in pressure required to initiate a response
% change from baseline, force on inflamed (right) paw ([1]; Group 4, 0.25 h): −5.7%
% change from baseline, force on untreated (left) paw ([1]; Group 4, 0.25 h): −17.0%
Force (g) applied, Left paw, individual animals ([1]; Group 4, 0.25 h): 60 g and 100 g and 180 g and 90 g and 80 g and 130 g and 110 g and 30 g
Force (g) applied, Right Paw (inflamed), individual animals ([1]; Group 4, 0.25 h): 10 g and 30 g and 80 g and 50 g and 40 g and 60 g (2×) and 0 g
Force (g) applied to the inflamed (right) paw, mean ([1]; Group 4, 0.25 h, n=8): 41.3 g
Force (g) applied to the untreated (left) paw, mean ([1]; Group 4, 0.25 h, n=8): 97.5 g
% change from baseline, force on inflamed (right) paw ([1]; Group 4, 0.5 h): 34.3%
% change from baseline, force on untreated (left) paw ([1]; Group 4, 0.5 h): −9.6%
Force (g) applied, Left paw, individual animals ([1]; Group 4, 0.5 h): 120 g (2×) and 130 g (2×) and 150 g and 90 g and 70 g and 40 g
Force (g) applied, Right Paw (inflamed), individual animals ([1]; Group 4, 0.5 h): 40 g (2×) and 50 g and 80 g and 90 g and 70 g and 100 g and 0 g
Force (g) applied to the inflamed (right) paw, mean ([1]; Group 4, 0.5 h, n=8): 58.8 g
Force (g) applied to the untreated (left) paw, mean ([1]; Group 4, 0.5 h, n=8): 106.3 g
% change from baseline, force on inflamed (right) paw ([1]; Group 4, 1 h): 65.7%
% change from baseline, force on untreated (left) paw ([1]; Group 4, 1 h): −10.6%
Force (g) applied, Left paw, individual animals ([1]; Group 4, 1 h): 80 g (3×) and 160 g and 100 g (2×) and 200 g and 40 g
Force (g) applied, Right Paw (inflamed), individual animals ([1]; Group 4, 1 h): 80 g and 60 g and 140 g and 40 g and 70 g (2×) and 90 g and 30 g
Force (g) applied to the inflamed (right) paw, mean ([1]; Group 4, 1 h, n=8): 72.5 g
Force (g) applied to the untreated (left) paw, mean ([1]; Group 4, 1 h, n=8): 105.0 g
% change from baseline, force on inflamed (right) paw ([1]; Group 4, 2 h): 165.7%
% change from baseline, force on untreated (left) paw ([1]; Group 4, 2 h): −24.5%
Force (g) applied, Left paw, individual animals ([1]; Group 4, 2 h): 100 g (2×) and 70 g and 130 g and 80 g (2×) and 90 g and 60 g
Force (g) applied, Right Paw (inflamed), individual animals ([1]; Group 4, 2 h): 180 g and 80 g (2×) and 240 g and 70 g (2×) and 120 g and 90 g
Force (g) applied to the inflamed (right) paw, mean ([1]; Group 4, 2 h, n=8): 116.3 g
Force (g) applied to the untreated (left) paw, mean ([1]; Group 4, 2 h, n=8): 88.8 g
% change from baseline, force on inflamed (right) paw ([1]; Group 4, 4 h): 38.45%
% change from baseline, force on untreated (left) paw ([1]; Group 4, 4 h): 14.9%
Force (g) applied, Left paw, individual animals ([1]; Group 4, 4 h): 130 g (2×) and 110 g (3×) and 220 g and 90 g and 180 g
Force (g) applied, Right Paw (inflamed), individual animals ([1]; Group 4, 4 h): 60 g and 90 g and 170 g and 100 g (2×) and 80 g and 150 g and 70 g
Force (g) applied to the inflamed (right) paw, mean ([1]; Group 4, 4 h, n=8): 102.5 g
Force (g) applied to the untreated (left) paw, mean ([1]; Group 4, 4 h, n=8): 135.0 g
pressure required in the treated (right) paw at 15 minutes post-dose, in words ([1]; Group 4, 15 minutes post-dose): slight decrease
pressure required to initiate a response in the treated (right) paw, in words ([1]; Group 4, between 0.5 and 2 hours post-dose compared to pre-dose, time dependent): increase in pressure required to initiate a response
force applied to the untreated (left) paw, in words ([1]; Group 4, throughout the data collection): remained comparable to pre-dose
Signs of anesthesia (rats [2]): reduced righting reflex, body tone, and ataxia up to 1 hour post-dose
relief of evoked pain 24 hours after administration (rats [3]): no relief of evoked pain
relation of adverse effects (euthanized animals, necropsy) to the test article (Gottingen Minipigs): not test article related
Time (s) taken for response, individual animals (male Sprague-Dawley rats): 4.2 s (2×) and 5.2 s (3×) and 5.9 s and 5.1 s and 7.7 s and 6.2 s (2×) and 4.4 s and 7.0 s and 7.5 s and 5.5 s and 6.4 s (2×) and 7.4 s (3×) and 6.5 s (2×) and 3.5 s and 5.8 s (3×) and 4.3 s and 4.9 s and 6.1 s and 5.7 s and 7.6 s
Time (s) taken for response, mean (male Sprague-Dawley rats): 5.6 s and 5.9 s and 6.3 s
group mean reaction time (longest) (male Sprague-Dawley rats): 6.3 s
group mean reaction time (shortest) (male Sprague-Dawley rats): 5.6 s
latency of tail flick, in words (male Sprague-Dawley rats): slight increase in latency of tail flick at all post-dose time points
magnitude of the increase in time taken for pain to be perceived (male Sprague-Dawley rats): 1.1 s
maximum effect, increase in time to tail flick (male Sprague-Dawley rats): 21.4%
half-life ([4]; 8 mg/kg): 5.76 h
half-life ([4]; 12 mg/kg): 5 h
half-life ([4]; 18 mg/kg): 3.12 h
mean concentration values measurable through (post the start of infusion) ([4]; Phase 1): 12 h
mean Css ([4]; Phase 5: 18 mg/kg, 1 mg/kg/hr, 18-hour SC infusion): 700 ng/mL
steady-state, in words ([4]; Phases 1 through 4): did not appear to reach a steady-state
mean concentration values measurable through (post the start of infusion) ([4]; Phases 3 through 5): 24 h
time to detectible plasma ketamine levels after initiating subcutaneous infusion ([4]; all animals): ≤ 5 min
exposure to ketamine against dose level ([4]; dose level from 4 to 18 mg/kg): generally increased with the increase in dose level
Tmax ([4]; female, 18 mg/kg, Phases 4 and 5: 18 mg/kg, 1 mg/kg/hr, 18-hour SC infusion, female): 13.5 h
Tmax ([4]; male, 8 mg/kg, Phase 2: 8 mg/kg, 1 mg/kg/hr, 8-hour SC infusion, males): 4.5 h
Tmax ([4]; male, 12 mg/kg, Phase 3: 12 mg/kg, 1.5 mg/kg/hr, 8-hour SC infusion, males): 2.04 h
dose proportionality of the increases in mean Cmax and AUC0-24 ([4]; males, dose level from 4 to 8 mg/kg): less than dose proportional
dose proportionality of the increases in mean Cmax and AUC0-24 ([4]; males, dose level from 8 to 12 mg/kg): greater than dose proportional
